Where two headings read alike, the source gives them in different places.

Drawing on US8044211B2 (Chroma Therapeutics Ltd., priority 2006, dated 2011), this text covers IC50 for 22 molecules.

One assay deals with THP-1 TNFα release. Nature of the assay: LPS-stimulation of THP-1 cells, TNF-α by ELISA. Format: cell-based. As to conditions: IC50 range, LPS 1 μg/ml, 6 hrs, read-out: Inhibitor activity versus THP-1 TNFα release. On the procedure:
THP-1 cells were plated in 100 μl at a density of 4×10^4 cells/well in V-bottomed 96 well tissue culture treated plates and incubated at 37° C. in 5% CO2 for 16 hrs. 2 hrs after the addition of the inhibitor in […], of tissue culture media, the cells were stimulated with LPS (E. coli strain 005:B5, Sigma) at a final concentration of 1 μg/ml and incubated at 37° C. in 5% CO2 for 6 hrs. TNF-α levels were measured from cell-free supernatants by sandwich ELISA (R&D Systems #QTA00B).

The target in the next assay is T1, p38 MAP Kinase a (Homo sapiens, UniProt Q16539).
T1 construct: purchased Upstate (Dundee UK)
T1 sequence (Q16539 whole entry): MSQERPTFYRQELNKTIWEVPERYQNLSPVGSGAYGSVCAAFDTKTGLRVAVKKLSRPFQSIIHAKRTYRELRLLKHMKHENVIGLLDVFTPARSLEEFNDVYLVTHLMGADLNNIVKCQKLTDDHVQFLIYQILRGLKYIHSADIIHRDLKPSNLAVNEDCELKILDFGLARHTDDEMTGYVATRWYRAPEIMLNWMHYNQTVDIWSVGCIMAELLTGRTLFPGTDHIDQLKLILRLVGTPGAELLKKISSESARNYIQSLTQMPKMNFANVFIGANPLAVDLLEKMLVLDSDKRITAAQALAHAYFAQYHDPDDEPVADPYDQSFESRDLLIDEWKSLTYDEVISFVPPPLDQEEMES
Nature of the assay: p38 MAP Kinase activity, radiometric filter-binding assay (Upstate). Format: biochemical. As to conditions: IC50 range; ATP at or close to Km; read-out: Inhibitor activity versus p38 MAPKa. On the procedure:
The ability of compounds to inhibit p38 MAP a Kinase activity was measured in an assay performed by Upstate (Dundee UK). In a final reaction volume of 25 μL, p38 MAP Kinase a (5-10 mU) is incubated with 25 mM Tris pH 7.5, 0.002 mMEGTA, 0.33 mg/mL myelin basic protein, 10 mM MgAcetate and [g-33P-ATP] (specific activity approx. 500 cpm/pmol, concentration as required). The reaction is initiated by the addition of the MgATP mix. After incubation for 40 minutes at room temperature, the reaction is stopped by the addition of 5 μL of a 3% phosphoric acid solution. 10 μL of the reaction is then spotted onto a P30 filtermat and washed three times for 5 minutes in 75 mM phosphoric acid and once in methanol prior to drying and scintillation counting.
Duplicate data points are generated from a ⅓ log dilution series of a stock solution in DMSO. Nine dilutions steps are made from a top concentration of 10 μM, and a ‘no compound’ blank is included. The standard radiometric filter-binding assay is performed at an ATP concentration at, or close to, the Km. Data from scintillation counts are collected and subjected to free-fit analysis by Prism software. From the curve generated, the concentration giving 50% inhibition is determined and reported.

On to `Nc1c(C(=O)c2ccc(F)cc2)ccc(=O)n1C1CCC(N[C@@H](Cc2ccccc2)C(=O)OC2CCCC2)CC1` (single isomer, unassigned) [Example 34], for which the IC50 in the assay on THP-1 TNFα release (Homo sapiens, THP-1) was greater than 1 µM; at p38 MAP Kinase a, 0.1 to 1 µM.

Consider `Nc1c(C(=O)c2ccc(F)cc2)ccc(=O)n1C1CCC(N[C@@H](Cc2ccccc2)C(=O)OC2CCCC2)CC1` (single isomer, unassigned) [Example 35], for which the IC50 was greater than 1 µM in the assay with THP-1 TNFα release and 0.1 to 1 µM at p38 MAP Kinase a.

With `Nc1c(C(=O)c2ccc(F)cc2)ccc(=O)n1-c1ccc(CN[C@H](C(=O)OC2CCCC2)c2ccccc2)cc1` [Example 1, Cyclopentyl(S)-{4-[6-Amino-5-(4-fluorobenzoyl)-2-oxo-2H-pyridin-1-yl]benzylamino}phenylacetate], the IC50 was greater than 1 µM in the assay on THP-1 TNFα release (Homo sapiens, THP-1) and 0.1 to 1 µM at p38 MAP Kinase a.

On to `Nc1c(C(=O)c2ccc(F)cc2)ccc(=O)n1-c1ccc(CN[C@@H](Cc2ccccc2)C(=O)OC2CCCC2)cc1` [Example 2, Cyclopentyl(S)-2-{4-[6-Amino-5-(4-fluorobenzoyl)-2-oxo-2H-pyridin-1-yl]benzylamino}-3-phenylpropionate], for which the IC50 in the assay with THP-1 TNFα release (Homo sapiens, THP-1) is greater than 1 µM; at p38 MAP Kinase a, 0.1 to 1 µM.

In the case of `Cc1cc(C(=O)c2ccc(=O)n(-c3ccc(CN[C@H](C(=O)OC4CCCC4)c4ccccc4)cc3)c2N)ccc1F` [Example 4, Cyclopentyl(S)-{4-[6-Amino-5-(3-methyl-4-fluorobenzoyl)-2-oxo-2H-pyridin-1-yl]benzylamino}phenylacetate], the IC50 in the assay on THP-1 TNFα release (Homo sapiens, THP-1) was greater than 1 µM; on p38 MAP Kinase a, 0.1 to 1 µM.

Turning to `Cc1cc(C(=O)c2ccc(=O)n(-c3ccc(CN[C@@H](Cc4ccccc4)C(=O)OC4CCCC4)cc3)c2N)ccc1F` [Example 5, Cyclopentyl(S)-2-{4-[6-Amino-5-(3-methyl-4-fluorobenzoyl)-2-oxo-2H-pyridin-1-yl]benzylamino}-3-phenylpropionate], the IC50 in the assay on THP-1 TNFα release (Homo sapiens, THP-1) was greater than 1 µM; at p38 MAP Kinase a, 0.1 to 1 µM.

As for `Cc1cc(C(=O)c2ccc(=O)n(-c3ccc(CN[C@@H](CC(C)C)C(=O)OC4CCCC4)cc3)c2N)ccc1F` [Example 6, Cyclopentyl(S)-2-{4-[6-Amino-5-(3-Methyl-4-fluorobenzoyl)-2-oxo-2H-pyridin-1-yl]benzylamino}-4-methylpentanoate], the IC50 is greater than 1 µM in the assay on THP-1 TNFα release (Homo sapiens, THP-1) and 0.1 to 1 µM at p38 MAP Kinase a.

Take `Nc1c(C(=O)c2ccc(F)cc2F)ccc(=O)n1-c1ccc(CN[C@H](C(=O)OC2CCCC2)c2ccccc2)cc1` [Example 7, Cyclopentyl(S)-{4-[6-Amino-5-(2,4-difluorobenzoyl)-2-oxo-2H-pyridin-1-yl]benzylamino}phenylacetate]: the IC50 in the assay with THP-1 TNFα release (Homo sapiens, THP-1) was greater than 1 µM; on p38 MAP Kinase a, less than 0.1 µM.

Consider `Nc1c(C(=O)c2ccc(F)cc2F)ccc(=O)n1-c1ccc(CN[C@@H](Cc2ccccc2)C(=O)OC2CCCC2)cc1` [Example 8, Cyclopentyl(S)-2-{4-[6-Amino-5-(2,4-difluorobenzoyl)-2-oxo-2H-pyridin-1-yl]benzylamino}-3-phenylpropionate], for which the IC50 with THP-1 TNFα release (Homo sapiens, THP-1) was 0.1 to 1 µM; at p38 MAP Kinase a it was less than 0.1 µM.

Consider `Cc1cc(C(=O)c2ccc(=O)n(-c3ccc(OCCCN[C@@H](Cc4ccccc4)C(=O)OC4CCCC4)cc3)c2N)ccc1F` [Example 12, Cyclopentyl(S)-2-(3-{4-[6-Amino-5-(3-methyl-4-fluorobenzoyl)-2-oxo-2H-pyridin-1-yl]phenoxy}propylamino)-3-phenyl propionate], for which the IC50 is 0.1 to 1 µM with THP-1 TNFα release (Homo sapiens, THP-1) and less than 0.1 µM on p38 MAP Kinase a.

As to `Nc1c(C(=O)c2ccc(F)cc2)ccc(=O)n1-c1c(F)cc(OCCCN[C@H](C(=O)OC2CCCC2)c2ccccc2)cc1F` [Example 13, Cyclopentyl(S)-(3-{4-[6-Amino-5-(4-fluorobenzoyl)-2-oxo-2H-pyridin-1-yl]-3,5-difluorophenoxy}propylamino)phenylacetate], the IC50 with THP-1 TNFα release (Homo sapiens, THP-1) was less than 0.1 µM; at p38 MAP Kinase a, less than 0.1 µM.

`Nc1c(C(=O)c2ccc(F)cc2)ccc(=O)n1-c1c(F)cc(OCCCN[C@@H](Cc2ccccc2)C(=O)OC2CCCC2)cc1F` [Example 14]: the IC50 in the assay on THP-1 TNFα release (Homo sapiens, THP-1) is less than 0.1 µM; on p38 MAP Kinase a, less than 0.1 µM.

For the molecule `Nc1c(C(=O)c2ccc(F)cc2)ccc(=O)n1C1CCC(N[C@@H](Cc2ccccc2)C(=O)O)CC1` (stereo partly drawn) [Example 105, (S)-2-{4-[6-Amino-5-(4-fluorobenzoyl)-2-oxo-2H-pyridin-1-yl]cyclohexylamino}-3-phenylpropionic acid], at p38 MAP Kinase a, the IC50 was in the range of 0.1 to 1 µM.

For `Nc1c(C(=O)c2ccc(F)cc2F)ccc(=O)n1-c1c(F)cc(OCCCN[C@@H](C(=O)O)c2ccccc2)cc1F` [Example 106, (R)-(3-{4-[6-Amino-5-(2,4-difluorobenzoyl)-2-oxo-2H-pyridin-1-yl]-3,5-difluorophenoxy}propylamino)phenyl acetic acid], on p38 MAP Kinase a, the IC50 is less than 0.1 µM.

As for `Nc1c(C(=O)c2ccc(F)cc2F)ccc(=O)n1-c1c(F)cc(OCCCN[C@H](C(=O)O)C2CCCCC2)cc1F` [Example 107, (2S)-[(3-{4-[6-amino-5-(2,4-difluorobenzoyl)-2-oxopyridin-1(2H)-yl]-3,5-difluorophenoxy}propyl)amino](cyclohexyl)acetic acid], the IC50 at p38 MAP Kinase a was less than 0.1 µM.

In the case of `CC(C)C[C@@H](NCCCOc1cc(F)c(-n2c(N)c(C(=O)c3ccc(F)cc3F)ccc2=O)c(F)c1)C(=O)O` [Example 108, N-(3-{4-[6-amino-5-(2,4-difluorobenzoyl)-2-oxopyridin-1(2H)-yl]-3,5-difluorophenoxy}propyl)-D-leucine], the IC50 at p38 MAP Kinase a is less than 0.1 µM.

`CC(C)C[C@H](NCCCCCOc1cc(F)c(-n2c(N)c(C(=O)c3ccc(F)cc3)ccc2=O)c(F)c1)C(=O)O` [Example 109, N-(5-{4-[6-amino-5-(4-fluorobenzoyl)-2-oxopyridin-1(2H)-yl]-3,5-difluorophenoxy}pentyl)-L-leucine]: the IC50 on p38 MAP Kinase a is less than 0.1 µM.

`CC(C)C[C@H](NC(=O)COc1ccc(-n2c(N)c(C(=O)c3ccc(F)cc3)ccc2=O)cc1)C(=O)O` [Example 110, N-({4-[6-Amino-5-(4-fluorobenzoyl)-2-oxopyridin-1(2H)-yl]phenoxy}-acetyl)-L-leucine]: the IC50 on p38 MAP Kinase a fell in the range of 0.1 to 1 µM.

As to `CC(C)C[C@H](NCCc1ccc(-n2c(N)c(C(=O)c3ccc(F)cc3)ccc2=O)cc1)C(=O)O` [Example 111, N-[2-(4-{6-amino-5-[(4-fluorophenyl)carbonyl]-2-oxopyridin-1 (2H)-yl}phenyl)ethyl]-L-leucine], the IC50 at p38 MAP Kinase a was in the range of 0.1 to 1 µM.

On to `CC(C)C[C@H](NCCCCCOc1cc(F)c(-n2c(N)c(C(=O)c3ccc(F)cc3F)ccc2=O)c(F)c1)C(=O)O` [Example 116, N-(5-{4-[6-amino-5-(2,4-difluorobenzoyl)-2-oxopyridin-1(2H)-yl]-3,5-difluorophenoxy}pentyl)-L-leucine], for which the IC50 on p38 MAP Kinase a is less than 0.1 µM.

As to `CC(C)C[C@H](NCCc1ccc(-n2c(N)c(C(=O)c3ccc(F)cc3F)ccc2=O)cc1)C(=O)O` [Example 117, N-[2-(4-{6-amino-5-[(2,4-difluorophenyl)carbonyl]-2-oxopyridin-1(2H)-yl}phenyl)ethyl]-L-leucine], the IC50 at p38 MAP Kinase a was less than 0.1 µM.

Consider `Nc1c(C(=O)c2ccc(F)cc2)ccc(=O)n1-c1ccc(CCN[C@H](C(=O)O)c2ccccc2)cc1` [Example 118], for which, on p38 MAP Kinase a, the IC50 was less than 0.1 µM.
